target: T1, IGF-1R Ba/F3 (Homo sapiens, UniProt P08069); test: Ba/F3 Cell Viability Inhibition Assay (IGF-1R Ba/F3); format: cell-based, murine; settings: Tel-TK transformed Ba/F3 cells, 48 hours, Britelite luminescence
T1 construct: fused on or other part: TEL- (or BCR-) IGF-1R in Ba/F3: the kinase part holds the site
Summary of the method: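 IL-3-independent murine Ba/F3 cells transformed with a TEL/BCR-fused IGF-1R kinase were seeded at 3750 cells/well and exposed to serially diluted compound for 48 h at 37 °C. Viability was read by Britelite luminescence. IC50 is the concentration giving 50% of DMSO-control viability, from a logistic fit.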

T1 sequence (P08069 999-1274 limits assumed): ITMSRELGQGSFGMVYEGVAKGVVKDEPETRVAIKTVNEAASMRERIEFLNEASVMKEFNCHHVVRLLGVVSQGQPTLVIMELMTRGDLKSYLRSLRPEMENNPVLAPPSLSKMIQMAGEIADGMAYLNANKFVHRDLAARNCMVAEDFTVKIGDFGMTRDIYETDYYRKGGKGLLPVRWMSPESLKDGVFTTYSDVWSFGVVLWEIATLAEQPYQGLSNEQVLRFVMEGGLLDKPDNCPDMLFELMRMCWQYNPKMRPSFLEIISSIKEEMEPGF

First: Cc1cc(Nc2nc(Nc3cc(C)c(C4CCNCC4)cc3F)ncc2Cl)n[nH]1 [Compound 2, 5-chloro-N2-(2-fluoro-5-methyl-4-(piperidin-4-yl)phenyl)-N4-(5-methyl-1H-pyrazol-3-yl)pyrimidine-2,4-diamine]
Second: Cc1cc(Nc2nc(Nc3cc(C(F)(F)F)c(C4CCNCC4)cc3F)ncc2Cl)n[nH]1 [Compound 253, 5-chloro-N2-(2-fluoro-4-(piperidin-4-yl)-5-(trifluoromethyl)phenyl)-N4-(5-methyl-1H-pyrazol-3-yl)pyrimidine-2,4-diamine]
The IC50 of the first is 1.5-fold lower: 50 nM for the first, 75 nM for the second. The first is the more potent here.

Compared with `Cc1cc(Nc2nc(Nc3cc(C)c(C4CCN(C(=O)C5(N(C)C)CC5)CC4)cc3F)ncc2Cl)n[nH]1` [Compound 94, (4-(4-(5-chloro-4-(5-methyl-1H-pyrazol-3-ylamino)pyrimidin-2-ylamino)-5-fluoro-2-methylphenyl)piperidin-1-yl)(1-(dimethylamino)cyclopropyl)methanone], `Cc1cc(Nc2nc(Nc3cc(C)c(C4CCN(C(=O)[C@@H]5CCN5)CC4)cc3F)ncc2Cl)n[nH]1` [Compound 132, (S)-azetidin-2-yl(4-(4-(5-chloro-4-(5-methyl-1H-pyrazol-3-ylamino)pyrimidin-2-ylamino)-5-fluoro-2-methylphenyl)piperidin-1-yl)methanone] is 12-fold higher in IC50: 13 nM for the first, 161 nM for the second. The first is the more potent here.

`CCNC(C)(C)C(=O)N1CCC(c2cc(C)c(Nc3ncc(Cl)c(Nc4cc(C)[nH]n4)n3)cc2C)CC1` [Compound 175, 1-(4-(4-(5-chloro-4-(5-methyl-1H-pyrazol-3-ylamino)pyrimidin-2-ylamino)-2,5-dimethylphenyl)piperidin-1-yl)-2-(ethylamino)-2-methylpropan-1-one] and `CNC(C)(C)C(=O)N1CCC(c2cc(C)c(Nc3ncc(Cl)c(Nc4cc(C)[nH]n4)n3)cc2Cl)CC1` [Compound 88, 1-(4-(2-chloro-4-(5-chloro-4-(5-methyl-1H-pyrazol-3-ylamino)pyrimidin-2-ylamino)-5-methylphenyl)piperidin-1-yl)-2-methyl-2-(methylamino)propan-1-one] are within 1.5-fold of each other in IC50: 5 nM for the first, 7 nM for the second.

First: Cc1cc(Nc2ncc(Cl)c(Nc3cc(C(F)(F)F)[nH]n3)n2)c(F)cc1C1CCN(CC(N)=O)CC1 [Compound 173, 2-(4-(4-(5-chloro-4-(5-(trifluoromethyl)-1H-pyrazol-3-ylamino)pyrimidin-2-ylamino)-5-fluoro-2-methylphenyl)piperidin-1-yl)acetamide]
Second: Cc1cc(Nc2nc(Nc3cc(C)c(C4CCN(CCC(F)(F)F)CC4)cc3F)ncc2Cl)n[nH]1 [Compound 24, 5-chloro-N^2-(2-fluoro-5-methyl-4-(1-(3,3,3-trifluoropropyl)piperidin-4-yl)phenyl)-N^4-(5-methyl-1H-pyrazol-3-yl)pyrimidine-2,4-diamine]
The IC50 of the first is 1.7-fold lower: 49 nM for the first, 85 nM for the second. The first is the more potent here.

`CCC(C(=O)NC)N1CCC(c2cc(C)c(Nc3ncc(Cl)c(Nc4cc(C)[nH]n4)n3)cc2C)CC1` (stereo not shown) [Compound 189, 2-(4-(4-(5-chloro-4-(5-methyl-1H-pyrazol-3-ylamino)pyrimidin-2-ylamino)-2,5-dimethylphenyl)piperidin-1-yl)-N-methylbutanamide] and `CCC(C(N)=O)N1CCC(c2cc(C)c(Nc3ncc(Cl)c(Nc4cc(C)[nH]n4)n3)cc2C)CC1` (stereo not shown) [Compound 185, 2-(4-(4-(5-chloro-4-(5-methyl-1H-pyrazol-3-ylamino)pyrimidin-2-ylamino)-2,5-dimethylphenyl)piperidin-1-yl)butanamide] are within 1.5-fold of each other in IC50: 7 nM for the first, 9 nM for the second.

First: Cc1cc(Nc2nc(Nc3cc(C)c(C4CCN(C5CCN(C(=O)OC(C)(C)C)C5)CC4)cc3F)ncc2Cl)n[nH]1 (stereo not shown) [Compound 291, tert-butyl 3-(4-(4-(5-chloro-4-(5-methyl-1H-pyrazol-3-ylamino)pyrimidin-2-ylamino)-5-fluoro-2-methylphenyl)piperidin-1-yl)pyrrolidine-1-carboxylate]
Second: Cc1cc(Nc2nc(Nc3cc(C)c(C4CCN(C5CCN(S(C)(=O)=O)CC5)CC4)cc3F)ncc2Cl)n[nH]1 [Compound 278, 5-chloro-N2-(2-fluoro-5-methyl-4-(1′-(methylsulfonyl)-1,4′-bipiperidin-4-yl)phenyl)-N4-(5-methyl-1H-pyrazol-3-yl)pyrimidine-2,4-diamine]
The IC50 of the first is 7.4-fold higher: 67 nM for the first, 9 nM for the second.

First: Cc1cc(Nc2nc(Nc3cc(C)c(C4CCN(C5CCS(=O)(=O)CC5)CC4)cc3C)ncc2Cl)n[nH]1 [Compound 146]
Second: Cc1cc(Nc2nc(Nc3cc(C(F)(F)F)c(C4CCN(C)CC4)cc3C)ncc2Cl)n[nH]1 [Compound 218, 5-chloro-N4-(5-methyl-1H-pyrazol-3-yl)-N2-(2-methyl-4-(1-methylpiperidin-4-yl)-5-(trifluoromethyl)phenyl)pyrimidine-2,4-diamine]
The IC50 of the first is 9.9-fold higher: 258 nM for the first, 26 nM for the second.

`Cc1cc(Nc2nc(Nc3cc(C)c(C4CCOC(=O)C4)cc3C)ncc2Cl)n[nH]1` (stereo not shown) [Compound 152, 4-(4-(5-chloro-4-(5-methyl-1H-pyrazol-3-ylamino)pyrimidin-2-ylamino)-2,5-dimethylphenyl)tetrahydro-2H-pyran-2-one] and `Cc1cc(Nc2nc(Nc3cc(C)c(C4CCCCN4C[C@H](O)C(F)(F)F)cc3C)ncc2Cl)n[nH]1` (stereo partly drawn) [Compound 197, (2S)-3-(2-(4-(5-chloro-4-(5-methyl-1H-pyrazol-3-ylamino)pyrimidin-2-ylamino)-2,5-dimethylphenyl)piperidin-1-yl)-1,1,1-trifluoropropan-2-ol] are within 1.5-fold of each other in IC50: 155 nM for the first, 210 nM for the second.

Going from `Cc1cc(Nc2nc(Nc3cc(C)c(C4CCN(C)CC4)cc3OC(C)C)ncc2Cl)n[nH]1` [Compound 3, 5-chloro-N2-(2-isopropoxy-5-methyl-4-(1-methylpiperidin-4-yl)phenyl)-N4-(5-methyl-1H-pyrazol-3-yl)pyrimidine-2,4-diamine] to `Cc1cc(Nc2nc(Nc3cc(C(F)(F)F)c(C4CCN(C)CC4)cc3F)ncc2Cl)n[nH]1` [Compound 216, 5-chloro-N2-(2-fluoro-4-(1-methylpiperidin-4-yl)-5-(trifluoromethyl)phenyl)-N4-(5-methyl-1H-pyrazol-3-yl)pyrimidine-2,4-diamine], the IC50 falls from 104 nM to 47 nM (2.2-fold).

Going from `CNC(=O)CN1CCC(c2cc(F)c(Nc3ncc(Cl)c(Nc4cc(C5CC5)[nH]n4)n3)cc2C)CC1` [Compound 32, 2-(4-(4-(5-chloro-4-(5-cyclopropyl-1H-pyrazol-3-ylamino)pyrimidin-2-ylamino)-5-fluoro-2-methylphenyl)piperidin-1-yl)-N-methylacetamide] to `COc1cc(Nc2ncc(Cl)c(Nc3cc(C)[nH]n3)n2)c(C)cc1C1CCN(CC(N)=O)CC1` [Compound 262, 2-(4-(4-(5-chloro-4-(5-methyl-1H-pyrazol-3-ylamino)pyrimidin-2-ylamino)-2-methoxy-5-methylphenyl)piperidin-1-yl)acetamide], the IC50 falls from 42 nM to 19 nM (2.2-fold). The second is the more potent here.

First: Cc1cc(Nc2ncc(Cl)c(N[C@@H]3CCCCNC3=O)n2)c(F)cc1C1CCN(C)CC1 (single isomer, unassigned) [Compound 11]
Second: Cc1cc(Nc2nc(Nc3cc(C)c(C4CCN(C(=O)[C@@H]5COCCN5C(C)C)CC4)cc3F)ncc2Cl)n[nH]1 [Compound 126, (S)-(4-(4-(5-chloro-4-(5-methyl-1H-pyrazol-3-ylamino)pyrimidin-2-ylamino)-5-fluoro-2-methylphenyl)piperidin-1-yl)(4-isopropylmorpholin-3-yl)methanone]
The IC50 of the first is 2.2-fold higher: 65 nM for the first, 29 nM for the second.

Reference: US8859574B2 (IRM LLC, priority 2008, dated 2014)
